Laboratory results from PubChem BioAssay AID2060888 (Molecular Pharmacology Branch, DTP, NCI, 2025).

System: 695427-040-R-J1-PDC complex spheroid viability
Test: Anticancer human tumor 695427-040-R-J1-PDC patient-derived colon adenocarcinoma cell line growth inhibition [RAS]
Details: for IC50: curve of first compound; for viability, T/C: stronger effect = lower value
Summary of the method: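 Multi-cell-type spheroids: tumor cells plus HUVEC endothelial cells and mesenchymal stem cells. RAS-pathway inhibitors were combined with targeted agents, each dosed in half-log steps down from clinical Cmax, or from 10 microM when Cmax was unknown.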

[1] = second compound 0.0316 µM, first compound 0.0316 µM
[2] = second compound 0.0316 µM, first compound 0.1 µM
[3] = second compound 0.0316 µM, first compound 0.316 µM
[4] = second compound 0.0316 µM, first compound 1 µM
[5] = second compound 0.0316 µM, first compound 3.16 µM
[6] = second compound 0.0316 µM, first compound 10 µM
[7] = second compound 0.1 µM, first compound 0.0316 µM
[8] = second compound 0.1 µM, first compound 0.1 µM
[9] = second compound 0.1 µM, first compound 0.316 µM
[10] = second compound 0.1 µM, first compound 1 µM
[11] = second compound 0.1 µM, first compound 3.16 µM
[12] = second compound 0.1 µM, first compound 10 µM
[13] = second compound 0.316 µM, first compound 0.0316 µM
[14] = second compound 0.316 µM, first compound 0.1 µM
[15] = second compound 0.316 µM, first compound 0.316 µM
[16] = second compound 0.316 µM, first compound 1 µM
[17] = second compound 0.316 µM, first compound 3.16 µM
[18] = second compound 0.316 µM, first compound 10 µM
[19] = second compound 1 µM, first compound 0.0316 µM
[20] = second compound 1 µM, first compound 0.1 µM
[21] = second compound 1 µM, first compound 0.316 µM
[22] = second compound 1 µM, first compound 1 µM
[23] = second compound 1 µM, first compound 3.16 µM
[24] = second compound 1 µM, first compound 10 µM
[25] = second compound 3.16 µM, first compound 0.0316 µM
[26] = second compound 3.16 µM, first compound 0.1 µM
[27] = second compound 3.16 µM, first compound 0.316 µM
[28] = second compound 3.16 µM, first compound 1 µM
[29] = second compound 3.16 µM, first compound 3.16 µM
[30] = second compound 3.16 µM, first compound 10 µM
[31] = second compound 10 µM, first compound 0.0316 µM
[32] = second compound 10 µM, first compound 0.1 µM
[33] = second compound 10 µM, first compound 0.316 µM
[34] = second compound 10 µM, first compound 1 µM
[35] = second compound 10 µM, first compound 3.16 µM
[36] = second compound 10 µM, first compound 10 µM
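Note: viability read after seven days of drug exposure.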
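Throughout, for viability, T/C: 100% = DMSO vehicle control viability.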

With `Cc1nc(N2CCC3(CC2)COC(C)C3N)c(CO)nc1Sc1ccnc(N)c1Cl` (stereo unspecified) + C#Cc1c(F)ccc2cc(O)cc(-c3ncc4c(N5CC6CCC(C5)N6)nc(OCC56CCCN5CC(F)C6)nc4c3F)c12 the IC50 (second compound 0.0316 µM) was greater than 10000 nM, the IC50 (second compound 0.1 µM) was greater than 10000 nM and the IC50 (second compound 0.316 µM) was 1980 nM. The IC50 (second compound 1 µM) was 477 nM, the IC50 (second compound 3.16 µM) was 36.3 nM and the IC50 (second compound 10 µM) was less than 31.6 nM. For the same molecule, the viability, T/C [1] was 92.3%, the viability, T/C [2] was 80.5% and the viability, T/C [3] was 70.7%. It also gave a viability, T/C [4] of 75%, a viability, T/C [5] of 70.5% and a viability, T/C [6] of 51.1%. It also gave a viability, T/C [7] of 89.2%, a viability, T/C [8] of 78.1% and a viability, T/C [9] of 79.2%. It also gave a viability, T/C [10] of 60.9%, a viability, T/C [11] of 60.2% and a viability, T/C [12] of 51.9%. It also gave a viability, T/C [13] of 78.7%, a viability, T/C [14] of 66.2% and a viability, T/C [15] of 56.7%. For the same molecule, the viability, T/C [16] was 57.1%, the viability, T/C [17] was 50.5% and the viability, T/C [18] was 39.2%. The viability, T/C [19] was 65.8%, the viability, T/C [20] was 63.2% and the viability, T/C [21] was 51.2%. It also gave a viability, T/C [22] of 42.1%, a viability, T/C [23] of 40.4% and a viability, T/C [24] of 26%. It also gave a viability, T/C [25] of 51.3%, a viability, T/C [26] of 44% and a viability, T/C [27] of 38.1%. It also gave a viability, T/C [28] of 32.6%, a viability, T/C [29] of 23.5% and a viability, T/C [30] of 16.2%. The viability, T/C [31] was 33.2%, the viability, T/C [32] was 27.7% and the viability, T/C [33] was 27.3%. For the same molecule, the viability, T/C [34] was 18.6%, the viability, T/C [35] was 15.8% and the viability, T/C [36] was 10.3%.
In the case of `NC1c2ccccc2OC12CCN(c1cnc3c(N4CCCc5ncccc54)n[nH]c3n1)CC2` (stereo unspecified) + C#Cc1c(F)ccc2cc(O)cc(-c3ncc4c(N5CC6CCC(C5)N6)nc(OCC56CCCN5CC(F)C6)nc4c3F)c12, the IC50 (second compound 0.0316 µM) is reported as 1180 nM, the IC50 (second compound 0.1 µM) is reported as 583 nM and the IC50 (second compound 0.316 µM) is reported as 141 nM. The IC50 (second compound 1 µM) was 50.8 nM, the IC50 (second compound 3.16 µM) was less than 31.6 nM and the IC50 (second compound 10 µM) was less than 31.6 nM. For the same molecule, the viability, T/C [1] was 69.6%, the viability, T/C [2] was 65.6% and the viability, T/C [3] was 57.4%. The viability, T/C [4] was 50%, the viability, T/C [5] was 45.2% and the viability, T/C [6] was 33.6%. For the same molecule, the viability, T/C [7] was 69%, the viability, T/C [8] was 61.8% and the viability, T/C [9] was 55.9%. For the same molecule, the viability, T/C [10] was 45.1%, the viability, T/C [11] was 34.9% and the viability, T/C [12] was 23.5%. The viability, T/C [13] was 66.8%, the viability, T/C [14] was 52.1% and the viability, T/C [15] was 40.8%. It also gave a viability, T/C [16] of 31.9%, a viability, T/C [17] of 25.5% and a viability, T/C [18] of 12.8%. It also gave a viability, T/C [19] of 55.8%, a viability, T/C [20] of 40.9% and a viability, T/C [21] of 33.6%. The viability, T/C [22] was 25.7%, the viability, T/C [23] was 15.8% and the viability, T/C [24] was 8.19%. For the same molecule, the viability, T/C [25] was 39.6%, the viability, T/C [26] was 27.4% and the viability, T/C [27] was 23.4%. The viability, T/C [28] was 15.9%, the viability, T/C [29] was 12.2% and the viability, T/C [30] was 5.36%. For the same molecule, the viability, T/C [31] was 23.9%, the viability, T/C [32] was 18.9% and the viability, T/C [33] was 10.8%. It also gave a viability, T/C [34] of 7.6%, a viability, T/C [35] of 4.71% and a viability, T/C [36] of 1.43%.
Work on `Nc1ccn(C2OC(CO)C(O)C2(F)F)c(=O)n1` (stereo unspecified) + C#Cc1c(F)ccc2cc(O)cc(-c3ncc4c(N5CC6CCC(C5)N6)nc(OCC56CCCN5CC(F)C6)nc4c3F)c12 yielded an IC50 (second compound 0.0316 µM) greater than 1000 nM, an IC50 (second compound 0.1 µM) greater than 1000 nM and an IC50 (second compound 0.316 µM) greater than 1000 nM. It also gave an IC50 (second compound 1 µM) greater than 1000 nM, an IC50 (second compound 3.16 µM) of 75.7 nM and an IC50 (second compound 10 µM) of less than 3.16 nM. For the same molecule, the viability, T/C (second compound 0.0316 µM, first compound 0.00316 µM) was 83.8%, the viability, T/C (second compound 0.0316 µM, first compound 0.01 µM) was 82.2% and the viability, T/C [1] was 75%. The viability, T/C [2] was 75.7%, the viability, T/C [3] was 76.8% and the viability, T/C [4] was 70.8%. For the same molecule, the viability, T/C (second compound 0.1 µM, first compound 0.00316 µM) was 87.7%, the viability, T/C (second compound 0.1 µM, first compound 0.01 µM) was 75.5% and the viability, T/C [7] was 81.9%. For the same molecule, the viability, T/C [8] was 68.8%, the viability, T/C [9] was 78.4% and the viability, T/C [10] was 67.2%. The viability, T/C (second compound 0.316 µM, first compound 0.00316 µM) was 85.2%, the viability, T/C (second compound 0.316 µM, first compound 0.01 µM) was 79.4% and the viability, T/C [13] was 66.7%. It also gave a viability, T/C [14] of 72.3%, a viability, T/C [15] of 67% and a viability, T/C [16] of 60.5%. It also gave a viability, T/C (second compound 1 µM, first compound 0.00316 µM) of 68%, a viability, T/C (second compound 1 µM, first compound 0.01 µM) of 63.4% and a viability, T/C [19] of 69.5%. It also gave a viability, T/C [20] of 59.6%, a viability, T/C [21] of 59.2% and a viability, T/C [22] of 55.7%. It also gave a viability, T/C (second compound 3.16 µM, first compound 0.00316 µM) of 57.9%, a viability, T/C (second compound 3.16 µM, first compound 0.01 µM) of 62.4% and a viability, T/C [25] of 48.9%. The viability, T/C [26] was 45.4%, the viability, T/C [27] was 50.8% and the viability, T/C [28] was 44.7%. It also gave a viability, T/C (second compound 10 µM, first compound 0.00316 µM) of 37.3%, a viability, T/C (second compound 10 µM, first compound 0.01 µM) of 34.8% and a viability, T/C [31] of 33.2%. It also gave a viability, T/C [32] of 36.4%, a viability, T/C [33] of 33.4% and a viability, T/C [34] of 33%.
